Source: patent publication US20070270421A1, “Novel pyridine Derivative and Pyrimidine Derivative (1)” (priority 2004, published 2007)

Target: T1, HGFR (His6-HGFR cytoplasmic domain) (Homo sapiens, UniProt P08581)
T1 construct: made in house; host or cells: Spodoptera frugiperda Sf9 insect cells (baculovirus, pFastBac-HT)
Assay: Inhibitory activity against HGFR tyrosine kinase activity (HTRF)
Format: biochemical
Settings: biotin-poly(GT), ATP, 30° C. 10 min, read-out: IC50 (concentration necessary to inhibit HGFR kinase activity by 50%)
Description: The cytoplasmic domain of HGFR (Genbank Accession No. J02958) is a 1.3 kb DNA fragment beginning with Lys974 and including a stop codon, and described by Park et al. (Proc. Natl. Acad. Sci. U.S.A. 84(18), 6379-6383, 1987). The DNA fragment was isolated from the human placental cDNA library (purchased from Clontech) by PCR (TaKaRa Ex Taq™ Kit, purchased from TaKaRa) using two kinds of primers (SEQ ID NO: 1, 5′-[…]-3′ and SEQ ID NO: 2, 5′-[…]-3′, purchased from Invitrogen). The DNA fragment was cloned into a baculovirus transplace vector (pFastBac™-HT (purchased from GIBCO BRL)) to produce a recombinant construct. The construct was transfected into insect cells (Spodoptera frugiperda 9 (Sf9)) to produce a solution of HGFR transfected baculovirus (preparation of a recombinant baculovirus can be found in the standard text (Bac-to-Bac Baculovirus Expression System (GIBCO BRL)). The cloning of the other receptor tyrosine kinases and preparation of the recombinant baculovirus solutions were performed using a cytoplasmic fragment starting from Lys791 (VEGFR2, Genbank Accession No. L04947), a cytoplasmic fragment starting from Lys398 (FGFR1, Genbank Accession No. X52833) and a cytoplasmic fragment starting from Lys558 (PDGFRβ, Genbank Accession No. M21616) in stead of HGFR in the above method. EGFR was purchased from Sigma (Production No. E-2645).
To the suspension of Sf9 cells (3×10^8 cells) in SF-900II medium (purchased from Invitrogen) containing 2% FBS was added a solution of HGFR transfected baculovirus above (4 ml), followed by a shaking culture at 27° C. for 48 hrs. The cells infected with the HGFR transfected baculovirus were centrifuged at 1,000 rpm, 4° C. for 5 min to remove the supernatant. The precipitated infected cells were suspended in 80 ml of ice-cold PBS, and centrifuged at 1,000 rpm, 4° C. for 5 min to remove the supernatant. The precipitated infected cells were suspended in 40 ml of ice-cold Lysis Buffer (50 mM Tris-HCl (pH 8.5), 5 mM 2-mercaptoethanol, 100 mM KCl, 1 mM PMSF and 1% (v/v) NP-40). The suspension was centrifuged at 12,000 rpm, 4° C. for 30 min to provide a supernatant.
The supernatant was loaded onto an Ni-NTA agarose column (3 ml, purchased from Qiagen) equilibrated with 30 ml of Buffer A (20 mM Tris-HCl (pH 8.5), 5 mM 2-mercaptoethanol, 500 mM KCl, 20 mM imidazole and 10% (v/v) glycerol). The column was washed with 30 ml of Buffer A, 6 ml of Buffer B (20 mM Tris-HCl (pH 8.5), 5 mM 2-mercaptoethanol, 1 M KCl, and 10% (v/v) glycerol) and 6 ml of Buffer A in this order. Then, the column was eluted with 6 ml of Buffer C (20 mM Tris-HCl (pH 8.5), 5 mM 2-mercaptoethanol, 100 mM KCl, 100 mM imidazole, and 10% (v/v) glycerol) to provide a fraction. The fraction was entrapped in a dialysis membrane (purchased from Spectrum Laboratories), dialyzed at 4° C. overnight with 1 L of dialysis buffer (20 mM Tris-HCl (pH 7.5), 10% (v/v) glycerol, 1 mM dithiothreitol, 0.1 mM Na3VO4 and 0.1 mM EGTA), and stored at −80° C. until used. An aliquot of the dialyzed fraction was subjected to SDS electrophoresis, and then a recombinant protein (His6-HGFR, the HGFR cytoplasmic domain fused with six histidine at the N terminus) detected at a molecular weight of about 60 kDa when stained with Coomassie Brilliant Blue, was determined with regard to protein content using BSA (purchased from Sigma) as a standard. The VEGFR2 cytoplasmic domain, the FGFR1 cytoplasmic domain, and the PDGFRβ cytoplasmic domain were fused with six histidine at the N terminus by the similar method to produce respective recombinant proteins (His6-VEGFR2, His6-FGFR1, and His6-PDGFRβ). […]

T1 sequence (P08581 956-1390 limits assumed): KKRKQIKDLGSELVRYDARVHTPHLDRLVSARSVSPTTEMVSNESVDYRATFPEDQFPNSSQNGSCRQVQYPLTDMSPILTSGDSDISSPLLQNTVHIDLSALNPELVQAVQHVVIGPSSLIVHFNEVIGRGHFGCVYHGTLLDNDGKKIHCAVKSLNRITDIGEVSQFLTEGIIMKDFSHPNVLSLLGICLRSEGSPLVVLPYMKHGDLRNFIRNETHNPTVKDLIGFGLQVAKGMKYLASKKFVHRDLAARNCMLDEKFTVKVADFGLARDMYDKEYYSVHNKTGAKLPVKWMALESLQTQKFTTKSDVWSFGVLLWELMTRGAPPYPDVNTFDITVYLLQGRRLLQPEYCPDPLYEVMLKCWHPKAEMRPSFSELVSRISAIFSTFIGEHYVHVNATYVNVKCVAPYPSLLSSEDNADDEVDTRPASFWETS

| Compound | IC50 [nM] |
| --- | --- |
| O=C(Cc1ccc(F)cc1)NC(=S)Nc1ccc(Oc2cc(NC(=O)N3CCOCC3)ncn2)c(F)c1 [Example 4, Morpholine-4-carboxylic acid [6-[2-fluoro-4-{3-[2-(4-fluorophenyl)acetyl]thioureido}phenoxy)pyrimidin-4-yl]amide] | 30 |
| O=C(Cc1ccc(F)cc1)NC(=S)Nc1ccc(Oc2cc(NC(=O)N3CCCCC3)ncn2)c(F)c1 [Example 6, Piperidine-1-carboxylic acid [6-(2-fluoro-4-{3-[2-(4-fluorophenyl)acetyl]thioureido}phenoxy)pyrimidin-4-yl]amide] | 60 |
| CN(C)C(=O)Nc1cc(Oc2ccc(NC(=S)NC(=O)Cc3ccc(F)cc3)cc2F)ncn1 [Example 7, 3-[6-(2-Fluoro-4-{3-[2-(4-fluorophenyl)acetyl]thioureido}phenoxy)pyrimidin-4-yl]-1,1-dimethylurea] | 18 |
| O=C(Cc1ccccc1)NC(=S)Nc1ccc(Oc2cc(NC(=O)N3CCC(N4CCCC4)CC3)ncn2)c(F)c1 [Example 8, 4-(Pyrrolidin-1-yl)piperidine-1-carboxylic acid {6-[2-fluoro-4-(3-phenylacetylthioureido)phenoxy]pyrimidin-4-yl}amide] | 83 |
| CN(C)C(=O)Nc1cc(Oc2ccc(NC(=S)NC(=O)CC3CCCCC3)cc2F)ccn1 [Example 16, 2-[(Dimethylamino)carbonylamino]-4-{2-fluoro-4-[3-(2-cyclohexylacetylthio)ureido]phenoxy}pyridine] | 56 |
| CN(C)C1CCN(C(=O)Nc2cc(Oc3ccc(NC(=S)NC(=O)Cc4ccccc4)cc3F)ccn2)CC1 [Example 38, 2-{[4-(Dimethylamino)piperidin-1-yl]carbonylamino}-4-{2-fluoro-4-[3-(2-phenylacetyl)thioureido]phenoxy}pyridine] | 26 |
| O=C(Cc1ccccc1)NC(=S)Nc1ccc(Oc2ccnc(NC(=O)N3CCC(N4CCC4)CC3)c2)c(F)c1 [Example 39, 2-{[4-(Azetidin-1-yl)piperidin-1-yl]carbonylamino}-4-{2-fluoro-4-[3-(2-phenylacetyl)thioureido]phenoxy}pyridine] | 50 |
| O=C(Cc1ccccc1)NC(=O)Nc1ccc(Oc2cc(NC(=O)N3CCCC3)ncn2)c(F)c1 [Example 46, Pyrrolidine-1-carboxylic acid {6-[2-fluoro-4-(3-phenylacetylureido)phenoxy]pyrimidin-4-yl}amide] | 45 |
| O=C(Cc1ccccc1)NC(=O)Nc1ccc(Oc2ccnc(NC(=O)N3CCCC3)c2)cc1Cl [Example 47, Pyrrolidine-1-carboxylic acid {4-[3-chloro-4-(3-phenylacetylureido)phenoxy]pyridin-2-yl}amide] | 100 |
| CCN(CC)CCCN(C)C(=O)Nc1cc(Oc2ccc(NC(=O)NC(=O)Cc3ccccc3)cc2F)ccn1 [Example 49, 1-(3-Diethylaminopropyl)-3-{4-[2-fluoro-4-(3-phenylacetylureido)phenoxy]pyridin-2-yl}-1-methylurea] | 210 |
| CN(C)C(=O)Nc1cc(Oc2ccc(NC(=O)NC(=O)Cc3ccc(F)cc3)cc2F)ncn1 [Example 51, 3-[6-(2-Fluoro-4-{3-[2-(4-fluorophenyl)acetyl]ureido}phenoxy)pyrimidin-4-yl]-1,1-dimethylurea] | 18 |
| CN(C)C(=O)Nc1cc(Oc2ccc(NC(=O)NC(=O)Cc3ccccc3)c(F)c2)ccn1 [Example 54, 3-{4-[3-Fluoro-4-(3-phenylacetylureido)phenoxy]pyridin-2-yl}-1,1-dimethylurea] | 43 |
| O=C(CC(=O)Nc1ccc(F)cc1F)Nc1ccc(Oc2ccnc(NC(=O)N3CCCC3)c2)c(F)c1 [Example 57, N-(3-Fluoro-4-{2-[(pyrrolidine-1-carbonyl)amino]pyridin-4-yloxy}phenyl)-N′-(2,4-difluorophenyl)malonamide] | 48 |
| O=C(CC(=O)Nc1c(F)cccc1F)Nc1ccc(Oc2ccnc(NC(=O)N3CCCC3)c2)c(F)c1 [Example 59, N-(2,6-Difluorophenyl)-N′-(3-fluoro-4-{2-[(pyrrolidine-1-carbonyl)amino]pyridin-4-yloxy}phenyl)malonamide] | 100 |
| COc1ccccc1NC(=O)CC(=O)Nc1ccc(Oc2ccnc(NC(=O)N3CCCC3)c2)c(F)c1 [Example 60, N-(2-methoxyphenyl)-N′-(3-fluoro-4-{2-[(pyrrolidine-1-carbonyl)amino]pyridin-4-yloxy}phenyl)malonamide] | 49 |
| O=C(CC(=O)NC1CCCCCC1)Nc1ccc(Oc2ccnc(NC(=O)N3CCCC3)c2)c(F)c1 [Example 61, N-Cycloheptyl-N′-(3-fluoro-4-{2-[(pyrrolidine-1-carbonyl)amino]pyridin-4-yloxy}phenyl)malonamide] | < 30 |
| O=C(CC(=O)Nc1ccc(Oc2ccnc(NC(=O)N3CCC3)c2)cc1Cl)Nc1ccc(F)cc1 [Example 64, N-(2-Chloro-4-{2-[(azetidine-1-carbonyl)amino]pyridin-4-yloxy}phenyl)-N′-(4-fluorophenyl)malonamide] | 59 |
| O=C(CC(=O)Nc1ccc(Oc2ccnc(NC(=O)N3CCCCC3)c2)cc1Cl)Nc1ccc(F)cc1 [Example 65, N-(2-Chloro-4-{2-[(piperidine-1-carbonyl)amino]pyridin-4-yloxy}phenyl)-N′-(4-fluorophenyl)malonamide] | 87 |
| O=C(CC(=O)Nc1ccc(Oc2ccnc(NC(=O)N3CCCC3)c2)c(Cl)c1)Nc1ccc(F)cc1 [Example 67, N-(3-Chloro-4-{2-[(pyrrolidine-1-carbonyl)amino]pyridin-4-yloxy}phenyl)-N′-(4-fluorophenyl)malonamide] | 67 |
| O=C(CC(=O)Nc1ccc(Oc2ccnc(NC(=O)N3CCOCC3)c2)cc1)Nc1ccc(F)cc1 [Example 71, N-(4-Fluorophenyl)-N′-(4-{2-[(morpholine-4-carbonyl)amino]pyridin-4-yloxy}phenyl)malonamide] | 25 |
| CC(=O)Nc1cc(Oc2ccc(NC(=O)CC(=O)Nc3ccc(F)cc3)c(F)c2)ccn1 [Example 74, N-(4-Fluorophenyl)-N′-[4-(2-acetylaminopyridin-4-yloxy)-2-fluorophenyl]malonamide] | 33 |
| CCC(=O)Nc1cc(Oc2ccc(NC(=O)CC(=O)Nc3ccc(F)cc3)c(F)c2)ccn1 [Example 75, N-(4-Fluorophenyl)-N′-[4-(2-propionylaminopyridin-4-yloxy)-2-fluorophenyl]malonamide] | 54 |
| CC(C)C(=O)Nc1cc(Oc2ccc(NC(=O)CC(=O)Nc3ccc(F)cc3)c(F)c2)ccn1 [Example 76, N-(4-Fluorophenyl)-N′-[4-(2-isobutylylaminopyridin-4-yloxy)-2-fluorophenyl]malonamide] | 100 |
| O=C(CC(=O)Nc1ccc(Oc2ccnc(NC(=O)N3CCC(N4CCCCC4)CC3)c2)cc1F)Nc1ccc(F)cc1 [Example 78, N-(4-Fluorophenyl)-N′-{2-fluoro-4-[({[4-(piperidin-1-yl)piperidin-1-yl]carbonyl}amino)pyridin-4-yloxy]phenyl}malonamide] | 130 |
| CCN(CC)CCCN(C)C(=O)Nc1cc(Oc2ccc(NC(=O)CC(=O)Nc3ccc(F)cc3)c(F)c2)ccn1 [Example 83] | 82 |
| CN(C)C(=O)Nc1cc(Oc2ccc(NC(=O)CC(=O)Nc3ccc(F)cc3)c(F)c2)ccn1 [Example 84, N-{4-[2-(3,3-Dimethylureido)pyridin-4-yloxy]-2-fluorophenyl}-N′-(4-fluorophenyl)malonamide] | 12 |
